Assay results from patent publication US20240199623A1 (ILDONG PHARMACEUTICAL CO., LTD., priority 2020, published 2024).
Values after ≈ are worked out from the molar mass of the structure shown.

How the values were obtained:
human wild type-CFTR [1] = molecular target: T1, human wild type-CFTR (Homo sapiens, UniProt P13569); test: Short-circuit current measurement; type: cell-based; design: expressed in transfected cells; conditions: FRT cells expressing human wild type-CFTR; Forskolin 20 μM signal used as 100% activity; read-out: Short-circuit current measurement (EC50) Concentration range
T1 sequence (P13569 whole entry): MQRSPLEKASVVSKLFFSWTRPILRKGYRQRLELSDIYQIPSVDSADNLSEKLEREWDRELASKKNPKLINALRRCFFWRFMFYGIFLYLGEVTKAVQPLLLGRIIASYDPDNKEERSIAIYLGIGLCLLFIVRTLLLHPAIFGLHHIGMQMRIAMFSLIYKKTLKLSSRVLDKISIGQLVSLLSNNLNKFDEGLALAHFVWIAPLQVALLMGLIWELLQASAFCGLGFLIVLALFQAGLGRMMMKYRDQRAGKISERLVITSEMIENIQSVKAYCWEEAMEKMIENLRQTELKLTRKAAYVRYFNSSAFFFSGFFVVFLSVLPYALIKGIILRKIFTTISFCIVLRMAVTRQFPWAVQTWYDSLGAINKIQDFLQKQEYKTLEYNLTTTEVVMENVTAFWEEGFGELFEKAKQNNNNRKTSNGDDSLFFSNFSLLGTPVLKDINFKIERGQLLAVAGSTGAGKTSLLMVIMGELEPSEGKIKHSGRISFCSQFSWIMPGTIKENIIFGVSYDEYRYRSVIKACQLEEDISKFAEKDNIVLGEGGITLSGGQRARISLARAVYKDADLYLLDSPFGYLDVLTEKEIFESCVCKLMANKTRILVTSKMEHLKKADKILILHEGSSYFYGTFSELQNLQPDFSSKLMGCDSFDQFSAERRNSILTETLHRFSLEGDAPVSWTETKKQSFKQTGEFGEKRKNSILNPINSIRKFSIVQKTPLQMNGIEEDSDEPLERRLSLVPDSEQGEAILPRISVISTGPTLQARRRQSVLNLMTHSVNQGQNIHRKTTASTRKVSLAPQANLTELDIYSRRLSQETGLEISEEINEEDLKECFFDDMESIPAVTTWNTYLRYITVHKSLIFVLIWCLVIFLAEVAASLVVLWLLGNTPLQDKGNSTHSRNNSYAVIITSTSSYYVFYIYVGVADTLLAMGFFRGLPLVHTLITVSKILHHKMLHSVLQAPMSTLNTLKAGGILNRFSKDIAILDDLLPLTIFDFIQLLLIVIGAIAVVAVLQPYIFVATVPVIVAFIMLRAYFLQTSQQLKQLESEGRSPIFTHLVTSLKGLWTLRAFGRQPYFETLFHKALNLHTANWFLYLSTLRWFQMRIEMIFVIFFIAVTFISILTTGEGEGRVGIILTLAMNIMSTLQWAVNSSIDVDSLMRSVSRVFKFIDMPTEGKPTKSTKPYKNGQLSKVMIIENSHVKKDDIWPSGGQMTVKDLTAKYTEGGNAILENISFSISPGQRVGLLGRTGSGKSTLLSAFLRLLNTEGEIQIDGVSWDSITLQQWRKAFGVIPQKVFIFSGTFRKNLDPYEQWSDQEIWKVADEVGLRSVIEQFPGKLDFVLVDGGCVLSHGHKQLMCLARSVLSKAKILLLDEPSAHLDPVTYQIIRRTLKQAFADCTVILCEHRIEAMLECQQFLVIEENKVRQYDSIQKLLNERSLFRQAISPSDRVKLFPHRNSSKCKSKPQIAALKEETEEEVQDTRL
Description: Forskolin (Tocris cat. #1099), CFTRinh-172 (Tocris cat. #3430), amphotericin B (Tocris cat. #6930), dimethyl sulfoxide (Sigma cat. #D4540), EVC4000 Multi-Channel V/I Clamp (World Precision Instruments, Sarasota, FL), PowerLab 4/35 (AD Instruments, Castle Hill, Australia), Labchart Pro 7, GraphPad Prism 5 (GraphPad Software, Inc.). Fisher rat thyroid (FRT) cells expressing human wild type-CFTR were provided by Dr. Alan Verkman (University of California, San Francisco) and grown in DMEM/F12 medium (1:1) supplemented with 10% FBS, 2 mM glutamine, 100 units/ml penicillin and 100 μg/ml streptomycin. Snapwell inserts containing CF TR-expressing FRT cells were mounted in Ussing chambers (Physiologic Instruments, San Diego, CA). […] Forskolin, test compounds, and CFTRinh-172 were added to the apical and basolateral bath solution. Apical membrane current and short-circuit current were measured with an EVC4000 Multi-Channel V/I Clamp (World Precision Instruments, Sarasota, FL) and recorded using PowerLab 4/35 (AD Instruments, Castle Hill, Australia). Data were collected and analyzed with ADInstruments acquisition software Labchart Pro 7 software. The sampling rate was 4 Hz.

C57BL/6 female mice = test: Scopolamine induced tear volume reduction model; type: in vivo, mouse; conditions: scopolamine-injected mice, ophthalmic solution topically on both eyes 3 times a day, phenol red thread; average if evaluated twice
Experimental: Seven-week old C57BL/6 female mice were used.
Scopolamine hydrobromide was purchased from Sigma Aldrich (Cat No. S0929), dissolved in saline, and sterilized prior to use.
Zone-Quick phenol red thread was obtained from Menicon.
The test compounds used in this experiment were dissolved in PBS containing 1% of surfactant.
Scopolamine (0.2 ml of 2.5 mg/mL solution) was injected subcutaneously 3 times a day to induce a decrease in the tear volume in the mouse. At the same time, the ophthalmic solution of test compounds or vehicle were topically administered onto both eyes 3 times a day. Tear volume was measured by phenol red thread before dosing (basal level) and 1 hour after the last administration of scopolamine and ophthalmic solution. The results were obtained by measuring the length of the phenol red thread turning red by tears. The schedule of study is expressed as FIG. 1.
If the test compound was evaluated twice, the average value was used.

human wild type-CFTR [2] = molecular target: T1, human wild type-CFTR; test: Cell-based YFP assay; design: expressed in transfected cells; host or cells: CHO-K1 (Chinese hamster ovary); conditions: CHO-K1 cells expressing human wild type-CFTR and YFP-H148Q/I152L; forskolin 20 μM = 100% activity; read-out: Cell-based YFP Assay (EC50) Concentration Range
In short: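 CHO-K1 cells co-expressing human wild-type CFTR and YFP-H148Q/I152L halide sensor, grown 48 h at 37 °C, then in PBS. YFP quenching by I⁻ influx read at 37 °C after adding 140 mM I⁻ solution, sampled every 0.4 s for 14 s. Triplicates averaged; EC50 fitted.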

[3] = Phosphate-buffered saline (PBS) solubility of compounds; type: physicochemical; conditions: aqueous buffer, thermodynamic from solid, PBS pH 7.5, 0.5 mg/mL, vortexed 90 min, filtered, LC-MS/MS, read-out: Solubility Range
Experimental: PBS solutions (pH 7.5) were prepared according to the following compositions and stored at 4° C. Test compounds were dissolved in PBS (pH 7.5) at 0.5 mg/mL and vortexed for 90 min. The PBS solution was sequentially filtered through a 0.45, 1.2, […] syringe filter. Concentration of test compounds were determined using LC-MS/MS with appropriate dilution of the samples.

Row | Compound | EC50 (human wild type-CFTR [1]) [nM] | Ratio of tear volume (test compound to vehicle) (C57BL/6 female mice) | EC50 (human wild type-CFTR [2]) [nM] | solubility at 90 min [3] [µg/mL]
1 | COc1ccc(-c2ccnc3cc(C(=O)N[C@H]4CC[C@H](C(=O)OCCCN5CCOCC5)CC4)nn23)cc1OC [Compound 197, 3-morpholinopropyl (1r,4r)-4-(7-(3,4-dimethoxyphenyl)pyrazolo [1,5-a]pyrimidine-2-carboxamido)cyclohexane-1-carboxylate] | 200 to 2000 | 1.18 | 200 to 2000 | 
2 | COc1ccc(-c2ccnc3cc(C(=O)NC4CCCCC4)nn23)cc1OC [Compound 2, N-cyclohexyl-7-(3,4-dimethoxyphenyl)pyrazolo[1,5-a]pyrimidine-2-carboxamide] | 200 to 2000 | 1.40 | < 200 | < 0.1
3 | COc1ccc(-c2ccnc3cc(C(=O)Nc4ccc(C(=O)N5CCOCC5)cc4C)nn23)cc1OC [Compound 127, 7-(3,4-dimethoxyphenyl)-N-(2-methyl-4-(morpholine-4-carbonyl)phenyl)pyrazolo[1,5-a] pyrimidine-2-carboxamide] | 200 to 2000 |  | 200 to 2000 | < 0.1
4 | COc1ccc(-c2ccnc3cc(C(=O)Nc4ccccn4)nn23)cc1OC [Compound 17, 7-(3,4-dimethoxyphenyl)-N-(pyridin-2-yl)pyrazolo[1,5-a] pyrimidine-2-carboxamide] | < 200 |  | < 200 | < 0.1
5 | COc1ccc(-c2ccnc3cc(C(=O)Nc4ccc(N5CCN(C(=O)OC(C)(C)C)CC5)cc4)nn23)cc1OC [Compound 271, tert-butyl 4-(4-(7-(3,4-dimethoxyphenyl)pyrazolo [1,5-a]pyrimidine-2-carboxamido)phenyl) piperazine-1-carboxylate] | < 200 | 1.17 | < 200 | < 0.1
6 | COc1ccc(-c2ccnc3cc(C(=O)Nc4ccc(C(=O)O)cc4)nn23)cc1OC [Compound 14, 4-(7-(3,4-dimethoxyphenyl)pyrazolo[1,5-a]pyrimidine-2-carboxamido)benzoic acid] | ≥ 2000 |  | 200 to 2000 | 0.1 to 10 (≈ 0.239 to 23.9 µM)
7 | COc1ccc(-c2ccnc3cc(C(=O)Nc4ccc(N5CCN(C(=O)OC(C)(C)C)CC5)cn4)nn23)cc1OC [Compound 272, tert-butyl 4-(6-(7-(3,4-dimethoxyphenyl)pyrazolo [1,5-a]pyrimidine-2-carboxamido)pyridin-3-yl)piperazine-1-carboxylate] |  | 1.14 | < 200 | < 0.1
8 | COc1ccc(-c2ccnc3cc(C(=O)Nc4ccc(C(=O)N[C@H](C(=O)N5CCN(C)CC5)C(C)C)cc4)nn23)cc1OC [Compound 146, (S)-7-(3,4-dimethoxyphenyl)-N-(4-((3-methyl-1-(4-methylpiperazin-1-yl)-1-oxobutan-2-yl)carbamoyl)phenyl) pyrazolo[1,5-a]pyrimidine-2-carboxamide] | < 200 |  | < 200 | < 0.1
9 | COC(=O)c1ccc2c(c1)CCCN2C(=O)c1cc2nccc(-c3ccc(OC)c(OC)c3)n2n1 [Compound 133, methyl 1-(7-(3,4-dimethoxyphenyl)pyrazolo [1,5-a]pyrimidine-2-carbonyl)-1,2,3,4-tetrahydroquinoline-6-carboxylate] | < 200 |  | < 200 | < 0.1
10 | COc1ccc(-c2ccnc3cc(C(=O)Nc4ccc(N5CC=CCC5)cc4)nn23)cc1OC [Compound 273, N-(4-(3,6-dihydropyridin-1(2H)-yl)phenyl)-7 (3,4-dimethoxyphenyl) pyrazolo[1,5-a]pyrimidine-2-carboxamide] |  | 0.80 | < 200 | < 0.1
11 | COc1ccc(-c2ccnc3cc(C(=O)Nc4ccc(N(C)C)cc4)nn23)cc1OC [Compound 276, 7-(3,4-dimethoxyphenyl)-N-(4-(dimethylamino)phenyl)pyrazolo[1,5-a]pyrimidine-2-carboxamide] |  | 1.21 | < 200 | < 0.1
12 | COC(=O)c1ccc(NC(=O)c2cc3nccc(-c4ccc(OC)c(OC)c4)n3n2)nc1 [Compound 31, methyl 6-(7-(3,4-dimethoxyphenyl)pyrazolo [1,5-a]pyrimidine-2-carboxamido)nicotinate] | < 200 |  | < 200 | < 0.1
13 | COC(=O)c1ccc2c(c1)CN(C(=O)c1cc3nccc(-c4ccc(OC)c(OC)c4)n3n1)CC2 [Compound 131, methyl 2-(7-(3,4-dimethoxyphenyl)pyrazolo [1,5-a]pyrimidine-2-carbonyl)-1,2,3,4-tetrahydroisoquinoline-7-carboxylate] | < 200 |  | < 200 | < 0.1
14 | COc1ccc(-c2ccnc3cc(C(=O)Nc4ccc(C(=O)OCCCN5CCOCC5)cn4)nn23)cc1OC [Compound 142, 3-morpholinopropyl 6-(7-(3,4-dimethoxyphenyl)pyrazolo [1,5-a]pyrimidine-2-carboxamido)nicotinate] | < 200 |  | < 200 | < 0.1
15 | CCOC(=O)CNC(=O)c1ccc(NC(=O)c2cc3nccc(-c4ccc(OC)c(OC)c4)n3n2)cc1 [Compound 28, ethyl (4-(7-(3,4-dimethoxyphenyl)pyrazolo [1,5-a]pyrimidine-2-carboxamido)benzoyl)glycinate] | < 200 |  | < 200 | < 0.1
16 | COC(=O)c1ccc2c(c1)N(C(=O)c1cc3nccc(-c4ccc(OC)c(OC)c4)n3n1)CC2 [Compound 132, methyl 1-(7-(3,4-dimethoxyphenyl)pyrazolo [1,5-a]pyrimidine-2-carbonyl)indoline-6-carboxylate] | 200 to 2000 |  | < 200 | < 0.1
17 | COC(=O)c1ccc2c(c1)CCN2C(=O)c1cc2nccc(-c3ccc(OC)c(OC)c3)n2n1 [Compound 130, methyl 1-(7-(3,4-dimethoxyphenyl)pyrazolo [1,5-a]pyrimidine-2-carbonyl)indoline-5-carboxylate] | 200 to 2000 |  | < 200 | < 0.1
18 | COc1ccc(-c2ccnc3cc(C(=O)Nc4ccc(C(=O)O)cc4Cl)nn23)cc1OC [Compound 106, 3-chloro-4-(7-(3,4-dimethoxyphenyl)pyrazolo [1,5-a]pyrimidine-2-carboxamido)benzoic acid] | ≥ 2000 |  | < 200 | < 0.1
19 | CCOC(=O)N1CCN(C(=O)c2cc3nccc(-c4ccc(OC)c(OC)c4)n3n2)CC1 [Compound 86, ethyl 4-(7-(3,4-dimethoxyphenyl)pyrazolo[1,5-a]pyrimidine-2-carbonyl) piperazine-1-carboxylate] | ≥ 2000 |  | 200 to 2000 | 
20 | COc1ccc(-c2ccnc3cc(C(=O)Nc4ccc(NC(=O)OC(C)(C)C)cc4)nn23)cc1OC [Compound 256, tert-butyl (4-(7-(3,4-dimethoxyphenyl)pyrazolo [1,5-a]pyrimidine-2-carboxamido)phenyl) carbamate] | < 200 |  | < 200 | < 0.1
21 | COc1ccc(-c2ccnc3cc(C(=O)Nc4ccc(N5CCCC5)cc4)nn23)cc1OC [Compound 277, 7-(3,4-dimethoxyphenyl)-N-(4-(pyrrolidin-1-yl)phenyl)pyrazolo[1,5-a] pyrimidine-2-carboxamide] | < 200 |  | < 200 | < 0.1
